Patent US12310967B2, “Compositions and methods of treatment for neurological disorders comprising motor neuron diseases” (Gliapharm SA, priority 2017, dated 2025)
Like-named read-outs stand apart in the source and are kept apart here.

How the values were obtained:
[1] = test system: primary astrocytes; assay: High throughput screening (HTS) for lactate secretion: acidification of extracellular medium (SNARF5); format: cell-based, mouse; design: key to Score / HTS Score (SNARF5) / Score_SNARF: fraction of plate positive-control activity (1 = 100%); settings: for Score_SNARF / Score: Appendix I; for Score_SNARF: primary screening confirmation (SNARF5); for HTS Score (SNARF5): CDC54K library, relative to positive control CCCP 2 uM; for HTS Score (SNARF5) / Score: 10 uM, 90 min; for Score: CDC54K primary screening, relative to CCCP 2 uM
In short: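 Mouse primary cortical astrocytes (DIV17) exposed to compounds at 10 uM final (1% DMSO) for 90 min in low-bicarbonate medium with SNARF-5F. Extracellular pH from 630/580 nm emission ratio (ex 480 nm); hits scored as % of CCCP 2 uM positive control, duplicate plates.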

[2] = test system: primary astrocytes; assay: Extracellular lactate quantification; format: cell-based, mouse; settings: for Score_LACTATE: Appendix I, secondary screening: extracellular lactate; for EC50: Mus musculus, Astrocyte
In short: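 Astrocytes were stimulated 90 min at 37 °C in D5030 medium with 5 mM glucose and 44 mM bicarbonate, with compound at 0-100 μM. Extracellular lactate was measured enzymatically with LDH/NAD in glycine-semicarbazide buffer, pH 10, for 1 h at 37 °C. NADH fluorescence (340/450 nm) was converted to lactate using an L-lactate standard curve.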

[3] = 1.5 h, CDC54K hits, 0-100 uM, 90 min, read-out: Lactate EC50

SMILES | EC50 [2, 3] [µM] | EC50 ([2]; Appendix II, lactate secretion, read-out: EC50) [µM] | Score_SNARF [1] | HTS Score (SNARF5) [1] | Score_LACTATE [2] | Score Lact. ([2]; Appendix II, CDC54K library) | Score [1]
N#Cc1ccc(C(=O)N2CCC(Nc3ncnc4c3CCC4)C2)cc1 (stereo not shown) [T636-2387] | 11.5 | 6.83 | 0.4809 | 0.445 | 0.3005 | 0.30 | 
CSc1cccc(NS(=O)(=O)c2ccc3onc(C(=O)N4CCCC4)c3c2)c1 [L995-0125] | 2 |  | 0.8016 | 0.854 | 0.9122 |  | 0.8545
Cc1ccccc1NC(=O)C1CCCN(c2ncnc3oc(C)c(C)c23)C1 (stereo not shown) [F228-0422] | 0.5 |  | 0.7702 | 1.058 | 0.6364 |  | 1.057
CCn1nccc1-c1csc(S(=O)(=O)Nc2ccc(Cl)cc2F)c1 [L924-1031] | 25.3 |  | 0.8713 | 0.929 | 1.632 |  | 0.9286
CCc1nc(-c2csc(S(=O)(=O)NCc3ccc4c(c3)OCO4)c2)no1 [L287-0468] | 7.9 |  | 0.6592 | 0.597 | 0.6179 |  | 0.5971
c1ccc2c(c1)CCN(c1ncnc3sccc13)C2 [T0517-8250] |  |  | 0.9124 |  | 0.9269 |  | 
CC(=O)N1CCc2sc(S(=O)(=O)N3CCN(c4ccccc4C)CC3)cc2C1 [P025-0159] | 8.7 |  | 0.8007 | 0.953 | 0.9232 |  | 0.9535

Now from value to molecule, other results behind:

EC50 [2, 3] [µM] | EC50 ([2]; Appendix II, lactate secretion, read-out: EC50) [µM] | SMILES | Score_SNARF [1] | HTS Score (SNARF5) [1] | Score_LACTATE [2] | Score Lact. ([2]; Appendix II, CDC54K library) | Score [1]
11.5 |  | Cc1nc2ccc(NS(=O)(=O)c3cccc(F)c3)cc2s1 [T6937001] | 0.8557 | 0.809 | 0.9088 |  | 0.8094
8.8 |  | CCc1ccc(S(=O)(=O)Nc2ccc3[nH]ncc3c2)cc1 [T5599014] | 0.5778 | 0.542 | 0.4419 |  | 0.5424
7.9 |  | O=C1CCCN1c1ccc(S(=O)(=O)Nc2cccc(/C=C/c3ccccn3)c2)cc1 [T5644989] | 0.8385 | 0.68 | 0.7859 |  | 0.6796
11 |  | COc1cc(C)c(Cl)cc1S(=O)(=O)NCc1ccncc1 [T5580243] | 0.8565 | 0.853 | 0.7229 |  | 0.8528
10 |  | CCc1ccc(S(=O)(=O)N2CCSC2c2ccc(OC)c(OC)c2)cc1 (stereo not shown) [T5463586] | 0.5553 | 0.77 | 0.3936 |  | 0.7707
